Marks after values point to notes of the source that are not given here.
Columns and labels:
[1] = system: CATIE African American schizophrenia patients; assay: CATIE drug response: change in total PANSS (LOCF), segmented by SULT4A1-1 status, African Americans; format: in vivo, human
Method: The design of the CATIE study has been described in detail by others (Lieberman et al., 2005; Stroup et al., 2003). […] A total of 738 subjects consented to provide DNA for genetic study. […] Retrospective genetic analyses, judged to be exempt from human studies requirements by an IRB, were conducted in the current study. All tested patients were studied using well established clinical endpoints comparing baseline, intermediate, and last observation carried forward (LOCF) for the PANSS scores using CATIE data. […] To remove time on drug as a variable for the CATIE trial, analysis was limited to only those patients who were randomized to a different drug following the initial washout period (drug switchers).

[2] = system: CATIE Caucasian schizophrenia patients; assay: Time to discontinuation for all causes in the CATIE study; format: in vivo, human; conditions: SULT4A1-1 Negative
Excerpt: The primary endpoint for the CATIE study was time to discontinuation for all causes (Lieberman et al., 2005). Thus the inventors evaluated the effect of SULT41-1 status on this important parameter.

[3] = system: patients, unsegmented populations; conditions: Meta-analysis, Leucht et al. (2009); cited from earlier work

OCCOCCN1CCN(C2=Nc3ccccc3Sc3ccccc32)CC1 [Quetiapine]
≦−20% (number of individuals; responders) ([1]; SULT4A1-1 Negative): 9
≧−20% (number of individuals; non-responders) ([1]; SULT4A1-1 Negative): 25
≦−20% (number of individuals; responders) ([1]; SULT4A1-1 Positive): 2
≧−20% (number of individuals; non-responders) ([1]; SULT4A1-1 Positive): 4
Time to discontinuation, mean time in months [2]: 8.6*** Months
Mean Difference in Total PANSS Score, Olanzapine vs. labelled drug [3]: −3.7

From patent publication US7972793B2, “Methods and compositions for the treatment of psychotic disorders through the identification of the SULT4A1-1 haplotype” (Suregene, LLC, priority 2009, dated 2011)
